Test results published in patent publication US7825294B2 (priority 2006, dated 2010).

B1: SEQ ID NO:11: Q174 protein isolated from Hypocrea lixii (Accession No. CAA64974) (protein, listed as Hypocrea lixii)
chain: MLLKQVLVAALLSLSSVTAFPNPNNLHDVEARDVEDNLVARGGSHDCGSYASWNNGKNCCVCKDNGKNYDSKSKSCNCPSGYTWNGHQCVHDCGKDATWQYGNCVCNKKGEVYNPKDKTCSCPPGQYWNGKNCQVDCGKDASYDYKQKKCVCKKHGEIYNSNSKTCSCPPGQVWNGYACVVDCGKEAHFDNKQKKCVCNNYGEIYNSGSKTCACPGGQYFNGKKCVCPYGKVWNGKQCVEDCGKEAHFDYNQKKCVCKNNGEVYNSAKKTCSCPDGQYWNGKQCVCPYGQVFNGKQCVPDCGKEATFDYNQKKCVCKNKGEIYDSKTKTCSCPDGQVWNGKQCVCPYGQVFNGKQCVPDCGKDATYDYNQKKCVCKNKGEVFDQKTKTCSCPDGQYWNGKQCACPYGQIFNGKQCVPDCGKDATYDYNQKKCVCKNKGEVFDQKTKTCSCPDGQYWNGKQCVCPYGKIFDGKQCVEDCGKDAHFDNNQKKCVCNKNGEIYDSKSKTCSCPDSQYWDGSKCACPYGTVWDGKHCNQDCGKDAHFDSNQKKCVCNKQGEVYDSKSKTCSCPDGQYWDGSKCACPYGKVWDGKQCVPNCGKDASYDSKQNKCVCKNIGQVFDTKSLTCSCPAGTSWNGHACVQDCGKDAHYDSNQKCCVCNNKGESYDSKSKTCSCPGNQYWDGNKCACPYGSTWDSSKKTCKMNYP

Columns and labels:
Format in all cases: cell-based
[1] = system: Fusarium graminearum (FGR); conditions: standard plate assay, 4,000 spores/mL, ¼× potato dextrose broth, 28° C., 24 to 48 hours
Diplodia maydis (DMA) = conditions: standard plate assay, 6,000 spores/mL, ¼× potato dextrose broth, 28° C., 24 to 48 hours
[2] = system: Colectotricum graminicola (CGR); conditions: standard plate assay, 4,000 spores/mL, ¼× Czapec-Dox V8, 28° C., 24 to 48 hours
[3] = system: Fusarium verticillioides (FVE)

Molecule	antifungal activity against FGR [1]	antifungal activity against DMA (Diplodia maydis (DMA))	antifungal activity against CGR [2]	antifungal activity against FVE [3]
Domain B (SPKKDEHEHCGKHASFNEEKKECVCHDKSEVFEKHHKKCKKAKDEKKKDDKKH; Domain B of SEQ ID NO34)	showed antifungal activity to varying extents	–	–	–
Domain C (KKDKHHDHCGKHASYSEEKKECVCHNKAEVFERKHKKCKKHISLR; Domain C of SEQ ID NO34)	showed antifungal activity to varying extents	–	–	–
Domain D (SIFNHCGRHAYYDEAKKECICHDAGKDFLKKHKTCACPQGEKWHHIERKCKA; Domain D of SEQ ID NO34)	showed antifungal activity to varying extents	–	–	–
SEQ ID NO:1: antipathogenic polypeptide (52 amino acids) isolated from a fungal fermentation broth extract of Fusarium oxysporum, designated LB-12265 (SILHHCGKHASWDHAKSECVCHDSGKVYTKKHHKCKCPKGEKWHHIEKKCKK; PEPTIDE (1)...(52) Predicted mature LB-12265 peptide; listed as Fusarium oxysporum)	showed antifungal activity	showed antifungal activity	showed antifungal activity	showed antifungal activity
SEQ ID NO:3: deduced amino acid sequence encoded by a nucleotide sequence from a fungal contaminant, most likely Fusarium, of a proprietary maize EST library (SILHHCGKHASWDHAKSECVCHDSGKVYTKKHHKCKCPKGEKWHHIEKKCKK; Deduced amino acid sequence encoded by SEQ ID NO4 from a fungal contaminant of Zea mays)	–	–	–	has antifungal activity
B1	showed antifungal activity to varying extents	showed antifungal activity to varying extents	showed antifungal activity to varying extents	showed antifungal activity to varying extents
